The structures appear in SMILES notation. Read-outs that look alike come from different tables or passages of the source.

The text below walks through data of US20040141955A1, “Compositions related to a novel endophytic fungi and methods of use” (priority 2001, published 2004).

The test system of one assay is R. solani. It is filed as cell-based. The settings on record: for Colony diameter at 3 days (mm) / Viability: single compound; for Colony diameter at 3 days (mm): untreated control 70-72 mm; for Percent Inibition of Colony growth at 3 days: 30 μl (0.92) of compound, or 30 μl each (0.92) in mixtures, per 65 mL head space; for lethal effect on R. solani: similar to that observed when R. solani is exposed to M. albus. The protocol:
In one set of experiments, a Petri plate divided by plastic walls into 3 equal spaces was used for the assay. A plug of R. solani was placed in one section of the Petri plate containing PDA. On another section of the plate, a lx2 cm piece of sterile filter paper was loaded with the test compound(s). All plates were wrapped with two layers of saran film and incubated at room temperature. The head space in each plate was 65 ml. Removing the agar plug and placing it onto a fresh PDA Petri plate determined the viability of R. Solani exposed to each test compound. Control experiments were also conducted along side without test compound(s).
The diameter of R. solani colonies on untreated control plates was 70-72 mm. The (+) symbol in the viability column of each table above indicates continued viability of the organism after exposure to and removal from the given compound or mixture, while the (−) symbol indicates death of the organism. Multiple (+) and (−) symbols in the same column indicate the results of multiple trials.
Synergism between the volatile organic components produced by M. albus was studied using the method of Limpel as described by Richer (Richer, D. L. 1987). The determination of synergy as described by Limpel can be represented by the following equation: […]
Where Ee is the expected additive effect of the two antifungal compounds, X is the observed percentage of inhibition of the test organism when antifungal agent A is applied alone at the rate used in the mixture, and Y is the observed percentage inhibition of the test organism when antifungal agent B is used alone at the rate used in the mixture.
Experimental studies were set up to determine if synergy exists between the components produced by M. albus. The biological activity of individual volatile organic compounds and mixtures of volatile organic compounds was tested according to the method described in Example 10 above. The observed inhibitory effects of the volatile organic compounds were then compared to the expected additive effects as calculated from the equation above.

Assay [1] deals with selected group of 7 test fungi. In words: Artificial atmosphere test of esters and individual esters. The format is cell-based.
Description: In another set of experiments, test solutions were prepared by placing the volatile organic compounds isolatable from Muscodor albus cultures grown on potato dextrose agar (PDA) in vials in the relative proportions that they occurred in the gas phase of such cultures. The test mixture was placed in a presterilized microcup (4×6 mm) located in the center of a Petri plate containing PDA. When not in use, the mixture was stored at 0° C. The test organisms, freshly growing and excised on 3 mm^3 agar blocks (at least 3 agar blocks per test fungus), were placed 2-3 cm from the microcup and the plate wrapped with two layers of parafilm and grown for 2 or more days at 23° C. Measurements were made on mycelial growth from the edge of the agar blocks. However, in the case of bacteria and Candida albicans they were streaked on the test side of the PDA plate and checked for new visible growth and viability by restreaking from the original area of the agar plate that had been inoculated. Appropriate controls were also set up in which no test solution was placed into the microcup. Tests on 3.2-90 μl of the artificial mixture per 50 CC of air space above the PDA plate were done on 3 replicates in order to obtain IC50 data for each test organism. Viability of the test microbes was made by aseptically removing the small agar block and placing it on a PDA plate and observing growth after 1-3 days.
To determine the relative biological activity of each class of compounds, individual classes were also tested in the relative amounts in which they occur at the optimum concentration of the entire mixture, which is 60 μl of test mixture per 50 CC of air space above the culture in a standard Petri plate. For instance, the esters represent 44% of the mixture of the identified volatiles and were tested at 26.4 μl/50 CC (0.53 μl/CC) air space and the same procedure was used for each of the other classes of compounds that were identified. This was done with a selected group of 7 test fungi.
Each compound in the class of esters was individually evaluated. […]
The mark [2] stands for this setting: amount 0.92 (60 μl/65 mL head space).

As for `CCC(C)CO` (centres unmarked) [2-Methyl-1-butanol], the “Colony diameter at 3 days (mm)” value in the assay on R. solani (setting [2]) is “no growth”.
Consider `CCOC(=O)CC` [Ethyl propionate], for which the “Percent Inibition of Colony growth at 3 days” value in the assay with R. solani is listed as 76%.
In the case of `CC(C)C(=O)O` [Isobutyric acid], the “lethal effect on R. solani” value in the assay with R. solani is “lethal effect”. In the assay on R. solani (setting [2]), the Viability entry is reported as “no” and the “Colony diameter at 3 days (mm)” value is recorded as “no growth”.
As for `CC(=O)OCCC(C)C` [3-methylbutyl acetate, 1-butanol, 3-methyl, acetate], the “death of test fungus” value in assay [1] (standard 3 day exposure period) is listed as “under no conditions in any test, was death of any test fungus observed”. Besides, the “inhibitory bioactivity of the individual ester” value in assay [1] (tested at the level of 0.32 μl/CC (62% of all identified combined esters)) is reported as “almost completely mimicked the results of all esters”.
`CC(C)CCOC(=O)C(C)C` [propionic acid, 2-methyl, 3-methylbutyl ester]: the “inhibitory bioactivity of the individual ester” value in assay [1] (each ester individually evaluated, comparable test) is given as “minimal inhibitory bioactivity”.
In the case of `CCCC(=O)OCC` [Ethyl butyrate], the “Percent Inibition of Colony growth at 3 days” value in the assay with R. solani was found to be 86%. In addition, the “Colony diameter at 3 days (mm)” value with R. solani (setting [2]) is given as “no growth”.
With `CC(C)CCO` [3-methyl-1-butanol], the “lethal effect on R. solani” value in the assay on R. solani was “lethal effect”. Further, the “Colony diameter at 3 days (mm)” value in the assay on R. solani (amount 0.46 (30 μl/65 mL head space)) was “fuzz”. Moreover, in the assay on R. solani (setting [2]), the Viability entry is on record as “no” and the “Colony diameter at 3 days (mm)” value is reported as “no growth”.
